Measurements from patent publication US20260327211A1, “MODULATORS OF A POTASSIUM CHANNEL AND OF TRPV1 CHANNEL AND USES THEREOF” (Bsense Bio Therapeutics Ltd., priority 2023, published 2026).
Read-outs that look alike come from different tables or passages of the source.

Columns and labels:
[1] = system: MIA-OA rats; assay: Monosodium iodoacetate-induced osteoarthritis (MIA-OA) pain model; assay type: in vivo, rat
Method: All animal experiments were carried out according to the Guide for the Care and Use of Laboratory Animals (2011 edition) and approved by the Israel National Institutional Animal Care and Use Committee (IACUC). Young adult male SD rats (Envigo RMS, Israel), were used for in vivo efficacy: Spared Nerve Injury (SNI), Distal Tibial Injury (DTI) and Post-operative Pain (POP), 200-220 grams, Chronic Post-Ischemia Pain (CPIP) 275-325 grams, Monosodium iodoacetate-induced osteoarthritis (MIA-OA) 180-220 grams; for in vivo safety: 200-250 grams at study initiation. […] The health status of the animals used in this study was examined upon their arrival. Only animals in good health were acclimatized to laboratory conditions and were used in the studies. All studies were performed following at least five days of animal acclimation. During acclimation and throughout the entire study duration, animals were housed within a limited-access rodent facility and kept in groups with a maximum of 2-3 rats per polypropylene cage. The cages were fitted with solid bottoms and filled with sterile wood shavings as bedding material. Animals were provided ad libitum with a commercial, sterile rodent diet and had free access to drinking water that was supplied to each cage via polyethylene bottles with stainless steel sipper tubes. A feed lot analysis of the diet batch used in the study was included in the archives with the study data. Water was monitored periodically. Plastic cylinders for playing and hiding and wooden balls or sticks were added to the cages for environmental enrichment.
Monosodium iodoacetate-induced osteoarthritis (MIA-OA): The animals were anaesthetized using an Isoflurane+O2 mixture. Then 50 μl of MIA at a concentration of 60 mg/mL was injected into the right knee joint using a 30 G needle. On study days 13 and 14 following MIA injection, the animals' dynamic weight bearing and response to von Frey filaments were measured.
Mechanical Allodynia (Von Frey): The rats were placed in an enclosure and positioned on a metal mesh surface but allowed to move freely. […]

[2] = system: rats; assay: Core body temperature; assay type: in vivo, rat
Method: Core Body Temperature: Following two days of habituation to the measurement method, the body temperature was measured on study day for baseline values and then again post-dosing in the time points indicated in the figure. Body temperature was measured using a probe gently inserted into the animal anus using a corn oil lubricant (C8267, Sigma-Aldrich, IL).

[3] = target: T1, Kv7.1 (Homo sapiens, UniProt P51787); assay: Kv7.1; assay type: biochemical
T1 construct: Eurofins DiscoverX, USA (assay provider)
T1 sequence (P51787 whole entry): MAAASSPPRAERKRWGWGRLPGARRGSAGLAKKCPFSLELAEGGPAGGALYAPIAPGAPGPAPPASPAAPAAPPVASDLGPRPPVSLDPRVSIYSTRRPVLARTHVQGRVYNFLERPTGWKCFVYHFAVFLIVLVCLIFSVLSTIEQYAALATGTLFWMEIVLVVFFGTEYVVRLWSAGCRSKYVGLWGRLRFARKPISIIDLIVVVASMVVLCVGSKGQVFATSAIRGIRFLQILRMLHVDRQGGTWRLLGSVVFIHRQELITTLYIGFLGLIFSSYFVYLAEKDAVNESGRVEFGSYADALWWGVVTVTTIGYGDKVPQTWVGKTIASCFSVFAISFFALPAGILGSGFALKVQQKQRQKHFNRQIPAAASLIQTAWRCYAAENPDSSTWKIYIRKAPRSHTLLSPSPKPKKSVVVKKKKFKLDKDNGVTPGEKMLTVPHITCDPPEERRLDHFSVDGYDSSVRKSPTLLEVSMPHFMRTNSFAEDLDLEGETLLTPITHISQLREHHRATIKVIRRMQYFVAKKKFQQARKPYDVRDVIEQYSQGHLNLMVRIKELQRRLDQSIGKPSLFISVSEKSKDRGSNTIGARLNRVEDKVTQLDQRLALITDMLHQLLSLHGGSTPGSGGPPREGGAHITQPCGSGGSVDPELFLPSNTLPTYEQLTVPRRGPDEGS
Method: (§1) A broad panel of 78 recombinant targets was tested for pharmacologic activity in vitro through a variety of functional assays (Eurofins DiscoverX, USA), as part of the National Institute of Neurological Disorders and Stroke (NINDS) Preclinical Screening Platform for Pain (PSPP) program. The biological targets for the in vitro profiling have been selected based on avoiding opioid receptor stimulation and targets known to be associated with adverse events or targeted by drugs of abuse. […] For each test, a reference compound was evaluated at the target of interest as a positive control.

[4] = target: T2, CYP2D6 (Homo sapiens, UniProt P10635); assay: CYP inhibition / time-dependent inhibition, CYP2D6_Dextromethorphan; assay type: in vitro ADME; conditions: role: inhibitor
T2 construct: pre-incubation of the human liver microsomes with the test compound; tissue Corning; host or cells: human liver microsomes
T2 sequence (P10635 whole entry): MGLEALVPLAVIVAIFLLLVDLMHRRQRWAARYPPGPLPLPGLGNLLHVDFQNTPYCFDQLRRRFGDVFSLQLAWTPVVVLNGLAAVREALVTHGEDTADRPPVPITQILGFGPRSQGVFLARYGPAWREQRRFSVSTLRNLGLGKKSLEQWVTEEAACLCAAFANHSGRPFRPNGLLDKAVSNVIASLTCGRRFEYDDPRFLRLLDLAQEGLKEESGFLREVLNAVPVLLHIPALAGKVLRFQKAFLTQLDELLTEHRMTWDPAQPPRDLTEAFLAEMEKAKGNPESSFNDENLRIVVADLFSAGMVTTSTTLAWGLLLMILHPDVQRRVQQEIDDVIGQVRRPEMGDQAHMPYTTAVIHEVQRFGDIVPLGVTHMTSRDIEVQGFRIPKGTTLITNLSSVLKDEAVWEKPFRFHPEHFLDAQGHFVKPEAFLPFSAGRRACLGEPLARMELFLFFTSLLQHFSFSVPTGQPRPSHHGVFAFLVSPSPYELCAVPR
Method: The time-dependent inactivation potency of the test compound to CYP enzymatic activities was assessed by the pre-incubation of the human liver microsomes with the test compound in the presence and absence of NADPH, followed by the incubation with the discrete marker substrates, as follows.
Pre-incubation with human liver microsomes (HLMs): The TDI inactivation potency on CYP enzymatic activities was evaluated through pre-incubation with HLMs (Corning). A liver microsome mixture at a concentration of 0.1 mg/mL, and the test compound at 8 different concentrations (0, 0.05, 0.165, 0.5, 1.65, 5.0, 16.5, or 50.0 μM) was warmed at 37° C. for 10 minutes. Concurrently, a set of known time-dependent inactivators was also prepared in duplicate for comparison. Following this, NADPH (1.0 mM) was added to one group (Group 1), and an equal volume of potassium phosphate buffer to the second group (Group 2), marking the beginning of a 30-minute pre-incubation at 37° C.
Incubation: After pre-incubation, the marker substrate, or marker substrate plus NADPH was added to the mixture, thereby initiating the incubation. The duration of the incubation was dependent on the type of CYP isoform being evaluated. For example, with the CYP3A isoform, the mixture was incubated over 3 minutes utilizing midazolam as the marker substrate (2.0 μM), verapamil as the standard inactivator (3.5 μM).
Termination of Reaction: Following the incubation, ice-cooled acetonitrile containing the internal standard (IS) was added to halt the reactions. Metabolites generated from the marker substrates were then measured via LC-MS/MS, assessed based on peak area ratios of the analyte to IS.

[5] = target: T3, opioid mu receptor (Homo sapiens, UniProt P35372); assay: Functional selectivity panel, opioid mu receptor; assay type: biochemical
T3 construct: Eurofins DiscoverX, USA (assay provider)
T3 sequence (P35372 whole entry): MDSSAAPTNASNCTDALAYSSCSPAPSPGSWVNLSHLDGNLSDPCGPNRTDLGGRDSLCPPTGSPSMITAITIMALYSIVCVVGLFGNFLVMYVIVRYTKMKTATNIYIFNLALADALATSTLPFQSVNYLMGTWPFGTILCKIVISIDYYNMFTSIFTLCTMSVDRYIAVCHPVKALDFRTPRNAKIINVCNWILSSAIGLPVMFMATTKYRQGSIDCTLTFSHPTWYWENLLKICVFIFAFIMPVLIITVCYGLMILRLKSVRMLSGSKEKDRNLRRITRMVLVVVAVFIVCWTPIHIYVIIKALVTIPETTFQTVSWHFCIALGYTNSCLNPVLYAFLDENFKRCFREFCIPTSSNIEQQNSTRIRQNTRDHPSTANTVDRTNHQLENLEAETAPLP
Method: as §1

[6] = Ligand-lipophilicity efficiency (LLE); assay type: physicochemical
Text: Ligand-lipophilicity efficiency (LLE) is a parameter used in drug design and drug discovery to evaluate the quality of research compounds, linking potency and lipophilicity.
To follow LLE values, the following equation was used: […]
Suitable LLE value are typically higher than 3 or higher than 5.

SMILES: O=C(Cc1nccc(-n2cc(Cl)c3cc(Cl)cc(Cl)c32)n1)NC1COCC1O (centres unmarked) [Compound 760]
- Pain relief in osteoarthritic pain model ([1]; 3-30 mg/kg PO, vs naproxen 30 mg/kg PO): superior in both effect and duration to high dose of naproxen
- minimal effective dose ([1]; Rattus norvegicus, po, read-out: Effective dose, osteoarthritic pain): 3 to 30 mg/kg
- Core body temperature ([2]; up to 300 mg/kg oral): displayed safety potential at up to 300 mg/kg oral dosing
- Effect on Kv7.1 ([3]; up to 10 micromolar): no effect
- IC50 ([4]; Table 9, read-out: CYP inhibition IC50 CYP2D6): > 50 µM
- Effect on Opioid mu ([5]; up to 10 micromolar): no effect

SMILES: CC(C)c1cc(Cl)cc(Cl)c1Nc1ccc(F)c(CC(=O)NCC(C)(C)O)c1 [NH91, reference compound]
- LLE [6]: 1.6
- LLE Kv 7.2/7.3 [6]: 0.8
- LLE TRPV1 [6]: −0.35

SMILES: Cc1cn(-c2ccc(F)c(CC(=O)NCC(C)(C)O)c2)c2c(Cl)cc(Cl)cc12 [Compound 421]
- LLE [6]: 2.1

SMILES: O=C(Cc1cncc(-n2cc(Cl)c3cc(Cl)cc(Cl)c32)c1)N[C@@H]1COC[C@H]1O [Compound 661]
- Reversal of PWT ([1]; 100 mg/kg, 6 hour post-dose): 33%
- Core body temperature ([2]; 20 and 50 mg/kg PO): no significant change in core body temperature
- Core body temperature ([2]; up to 300 mg/kg, 1-24 hours post-dose): no effects on core body temperature
- Kv7.1 activity ([3]; up to solubility limit): no measurable activity at any concentration tested
- IC50 ([4]; (+)NADPH pre-incubation, substrate dextromethorphan, read-out: IC50 (+)NADPH CYP2D6_Dextromethorphan): 31.7 µM
- IC50 ([4]; (−)NADPH pre-incubation, substrate dextromethorphan, read-out: IC50 (−)NADPH CYP2D6_Dextromethorphan): 28.5 µM
- IC50 [5]: 6 µM
